Results on seven compounds are retold here after patent US7635716B2, “Substituted cyclopentanes or cyclopentanones as therapeutic agents” (Allergan, Inc., priority 2005, dated 2009).

pEC50: −log10 of the molar value. Like-named read-outs stand apart in the source and are kept apart here. Where only a bound is given, the exact number is not on record here.

Type in all cases: cell-based
One assay addresses hEP2 (Homo sapiens, UniProt P43116). The assay is described as follows: hEP2 cAMP functional assay. The settings on record: Table 1, second part.
The target of another assay is T1, hEP4/Gqs5 (Homo sapiens, UniProt P35408).
T1 construct: expressed in transfected cells; host or cells: HEK-293(EBNA) cells
T1 sequence (P35408 whole entry): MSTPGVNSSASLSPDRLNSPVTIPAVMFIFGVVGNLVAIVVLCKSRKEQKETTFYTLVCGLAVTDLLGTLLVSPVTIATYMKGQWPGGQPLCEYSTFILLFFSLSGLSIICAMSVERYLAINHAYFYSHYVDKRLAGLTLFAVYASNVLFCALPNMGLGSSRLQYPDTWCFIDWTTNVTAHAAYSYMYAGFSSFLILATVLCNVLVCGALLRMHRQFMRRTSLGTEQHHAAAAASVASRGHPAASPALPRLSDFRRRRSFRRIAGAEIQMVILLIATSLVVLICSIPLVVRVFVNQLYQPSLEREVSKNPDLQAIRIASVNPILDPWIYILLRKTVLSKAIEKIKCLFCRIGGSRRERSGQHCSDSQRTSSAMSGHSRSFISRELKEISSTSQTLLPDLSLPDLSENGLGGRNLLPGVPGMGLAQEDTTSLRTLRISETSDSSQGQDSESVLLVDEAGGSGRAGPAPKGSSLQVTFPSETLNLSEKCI
The assay is described as follows: FLIPR calcium signal, HEK-293(EBNA) cells. The essentials: (§1)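 Peak Fluo-4 fluorescence (2 µM dye loading, 45 min) was recorded in HEK-293(EBNA) cells stably expressing each human receptor, in HBSS-HEPES pH 7.4 at 37 °C. Signals were expressed relative to buffer and standard agonist controls: PGE2 (EP2, EP4), PGF2 (FP), carbacyclin (IP). Compounds were tested at 10^−5 M or from 10^−5 to 10^−11 M, in duplicate, n≧3.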

The next assay addresses T2, hEP2/Gqs5 (Homo sapiens, UniProt P43116).
T2 construct: expressed in transfected cells; host or cells: HEK-293(EBNA) cells
The assay is described as follows: FLIPR calcium signal, HEK-293(EBNA) cells. An outline of the steps: as §1

The next assay deals with T3, hTP (Homo sapiens, UniProt P21731).
T3 construct: expressed in transfected cells; host or cells: HEK-293(EBNA) cells
T3 sequence (P21731 1-343): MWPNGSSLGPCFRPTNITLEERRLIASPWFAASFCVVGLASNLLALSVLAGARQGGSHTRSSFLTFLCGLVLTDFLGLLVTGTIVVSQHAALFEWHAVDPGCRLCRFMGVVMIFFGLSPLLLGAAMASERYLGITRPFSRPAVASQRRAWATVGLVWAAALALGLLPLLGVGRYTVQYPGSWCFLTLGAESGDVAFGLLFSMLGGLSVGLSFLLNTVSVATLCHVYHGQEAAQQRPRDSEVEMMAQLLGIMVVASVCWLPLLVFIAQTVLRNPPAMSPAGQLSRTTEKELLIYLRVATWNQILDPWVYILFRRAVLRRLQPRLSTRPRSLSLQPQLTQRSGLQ
The assay is described as follows: FLIPR calcium signal, HEK-293(EBNA) cells.

Another assay concerns the target T4, hEP3A/Gqi5 (Homo sapiens, UniProt P43115).
T4 construct: expressed in transfected cells; host or cells: HEK-293(EBNA) cells
T4 sequence (P43115 1-390): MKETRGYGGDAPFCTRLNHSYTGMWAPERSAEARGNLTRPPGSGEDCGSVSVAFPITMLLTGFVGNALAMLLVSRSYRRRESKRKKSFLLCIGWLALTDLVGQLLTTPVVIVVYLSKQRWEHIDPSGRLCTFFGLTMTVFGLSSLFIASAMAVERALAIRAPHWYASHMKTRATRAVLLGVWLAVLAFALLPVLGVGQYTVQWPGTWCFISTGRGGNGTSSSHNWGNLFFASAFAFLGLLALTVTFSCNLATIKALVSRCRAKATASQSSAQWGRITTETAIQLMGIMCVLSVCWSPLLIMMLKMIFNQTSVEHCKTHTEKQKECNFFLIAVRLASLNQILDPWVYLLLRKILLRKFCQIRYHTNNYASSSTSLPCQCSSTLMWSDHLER
The assay is described as follows: FLIPR calcium signal, HEK-293(EBNA) cells.

Another assay deals with T5, hEP1 (Homo sapiens, UniProt P34995).
T5 construct: expressed in transfected cells; host or cells: HEK-293(EBNA) cells
T5 sequence (P34995 1-402): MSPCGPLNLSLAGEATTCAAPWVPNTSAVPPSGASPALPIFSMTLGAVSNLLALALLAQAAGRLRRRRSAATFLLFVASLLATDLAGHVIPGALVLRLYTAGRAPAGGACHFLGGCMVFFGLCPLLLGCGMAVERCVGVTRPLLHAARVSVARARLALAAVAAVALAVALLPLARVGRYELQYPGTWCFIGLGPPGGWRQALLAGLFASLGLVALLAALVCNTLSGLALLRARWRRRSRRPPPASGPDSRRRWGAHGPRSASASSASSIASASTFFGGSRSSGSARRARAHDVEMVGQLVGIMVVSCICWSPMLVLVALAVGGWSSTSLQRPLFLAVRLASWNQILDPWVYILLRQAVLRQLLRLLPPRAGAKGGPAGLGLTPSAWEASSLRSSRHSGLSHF
The assay is described as follows: FLIPR calcium signal, HEK-293(EBNA) cells.

The mark [1] stands for this setting: Table 1, first part, triplicate, read-out: functional data (EC50) hEP4.
[2] abbreviates: Table 1, first part, triplicate, read-out: functional data (EC50) hEP2.
[3] abbreviates: Table 1, first part, triplicate, read-out: functional data (EC50) hTP.
[4] abbreviates: Table 1, second part, quantity not given, values match functional data (EC50) of first part, read-out: Other Receptors hTP.
The mark [5] stands for this setting: Table 1, first part, data represents a single experiment, read-out: functional data (EC50) hEP3A*.
Setting [6] is: Table 1, second part, quantity not given, values match functional data (EC50) of first part, read-out: Other Receptors hEP3.
Where [7] appears, read: Table 1, first part, triplicate, read-out: functional data (EC50) hEP1.
Where [8] appears, read: Table 1, second part, quantity not given, values match functional data (EC50) of first part, read-out: Other Receptors hEP1.
Setting [9] is: Table 1, second part, read-out: hEP4 flipr EC50.
The mark [10] stands for this setting: Table 1, second part, read-out: hEP2 flipr EC50.

Sequence of hEP2 (P43116 whole entry): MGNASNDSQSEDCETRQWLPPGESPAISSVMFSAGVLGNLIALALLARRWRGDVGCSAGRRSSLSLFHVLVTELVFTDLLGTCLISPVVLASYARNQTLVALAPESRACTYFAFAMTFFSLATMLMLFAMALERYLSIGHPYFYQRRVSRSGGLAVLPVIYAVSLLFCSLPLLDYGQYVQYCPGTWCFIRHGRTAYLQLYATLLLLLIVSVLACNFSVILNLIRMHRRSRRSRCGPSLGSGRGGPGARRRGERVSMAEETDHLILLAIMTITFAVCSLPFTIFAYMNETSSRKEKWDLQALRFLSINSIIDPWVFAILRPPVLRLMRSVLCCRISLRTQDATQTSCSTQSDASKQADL
T2 sequence (P43116 whole entry): as above

Take `O=C(O)CCCCCC[C@H]1C(=O)CC[C@@H]1COc1ccccc1` [Example 6, 7-((1R,5S)-2-Oxo-5-phenoxymethyl-cyclopentyl)-heptanoic acid]: the pEC50 on hEP2 was 6.63; on hEP4/Gqs5 (setting [1]) it was 5.10; on hEP2/Gqs5 (setting [2]), 6.14; on hTP (setting [3]) it was less than 5.00; on hTP (setting [4]), less than 5.00; at hEP3A/Gqi5 (setting [5]), 5.45. On hEP3A/Gqi5 (setting [6]), the pEC50 is 5.45.

Turning to `O=C(O)CCC/C=C\C[C@@H]1[C@@H](COc2ccccc2)[C@H](O)C[C@H]1Cl` [Example 8, (Z)-7-((1R,2S,3R,5R)-5-Chloro-3-hydroxy-2-phenoxymethyl-cyclopentyl)-hept-5-enoic acid], the pEC50 was 5.49 on hEP4/Gqs5 (setting [1]); 6.64 on hEP2/Gqs5 (setting [2]); less than 5.00 on hEP1 (setting [7]); less than 5.00 at hEP1 (setting [8]); less than 5.00 at hTP (setting [3]); less than 5.00 on hTP (setting [4]). Moreover, the pEC50 at hEP3A/Gqi5 (setting [5]) and on hEP3A/Gqi5 (setting [6]) was 5.13 throughout.

Turning to `O=C(O)CCCCCC[C@@H]1[C@@H](COc2ccccc2)[C@H](O)C[C@H]1Cl` [Example 10, 7-((1R,2S,3R,5R)-5-Chloro-3-hydroxy-2-phenoxymethyl-cyclopentyl)-heptanoic acid], the pEC50 at hEP2 was 7.33; on hEP4/Gqs5 (setting [1]), 5.14; at hEP2/Gqs5 (setting [2]), 6.91; at hEP1 (setting [7]), less than 5.00; on hEP1 (setting [8]) it was less than 5.00; at hTP (setting [3]) it was less than 5.00. Further, the pEC50 at hTP (setting [4]) is less than 5.00; at hEP3A/Gqi5 (setting [5]) it was 5.45; at hEP3A/Gqi5 (setting [6]), 5.45.

Take `O=C(O)CCC/C=C\C[C@@H]1[C@@H](COc2cc(Cl)cc(Cl)c2)[C@H](O)C[C@H]1Cl` [Example 12, (Z)-7-[(1R,2S,3R,5R)-5-Chloro-2-(3,5-dichloro-phenoxymethyl)-3-hydroxy-cyclopentyl]-hept-5-enoic acid]: the pEC50 on hEP2 was 9.05; on hEP4/Gqs5 (setting [1]) it was 7.32; at hEP4/Gqs5 (setting [9]), 7.32; at hEP2/Gqs5 (setting [2]), 9.10; on hEP2/Gqs5 (setting [10]) it was 9.10; on hEP1 (setting [7]), less than 5.00. For the same compound, the pEC50 was less than 5.00 at hEP1 (setting [8]); less than 5.00 at hTP (setting [3]); less than 5.00 on hTP (setting [4]); 5.90 on hEP3A/Gqi5 (setting [5]); 5.90 on hEP3A/Gqi5 (setting [6]).

As for `O=C(O)CCCCCC[C@@H]1[C@@H](COc2cc(Cl)cc(Cl)c2)[C@H](O)C[C@H]1Cl` [Example 14, 7-[(1R,2S,3R,5R)-5-Chloro-2-(3,5-dichloro-phenoxymethyl)-3-hydroxy-cyclopentyl]-heptanoic acid], the pEC50 is 7.85 on hEP2; 6.82 at hEP4/Gqs5 (setting [1]); 7.62 on hEP2/Gqs5 (setting [2]); less than 5.00 at hEP1 (setting [7]); less than 5.00 at hEP1 (setting [8]); less than 5.00 at hTP (setting [3]). Further, the pEC50 on hTP (setting [4]) was less than 5.00; on hEP3A/Gqi5 (setting [5]), 5.46; at hEP3A/Gqi5 (setting [6]), 5.46.

For the compound “(Z)-7-((1R,2S,3R)-3-Hydroxy-5-oxo-2-phenoxymethyl-cyclopentyl)-hept-5-enoic acid [Example 4]”, the pEC50 is less than 5.00 at hEP4/Gqs5 (setting [1]); 6.44 at hEP4/Gqs5 (setting [9]); 5.29 on hEP2/Gqs5 (setting [2]); less than 5.00 on hEP2/Gqs5 (setting [10]); less than 5.00 at hEP1 (setting [7]); less than 5.00 at hTP (setting [3]). Besides, the pEC50 at hEP3A/Gqi5 (setting [5]) is 4.73.

“(Z)-7-((1R,5S)-2-Oxo-5-phenoxymethyl-cyclopent-3-enyl)-hept-5-enoic acid [Example 3]”: the pEC50 on hEP4/Gqs5 (setting [1]) is 6.44; at hEP4/Gqs5 (setting [9]) it was less than 5.00; on hEP2/Gqs5 (setting [2]), less than 5.00; at hEP2/Gqs5 (setting [10]), 5.29; on hEP1 (setting [8]), less than 5.00; at hTP (setting [4]), less than 5.00. For the same compound, the pEC50 on hEP3A/Gqi5 (setting [6]) is 4.73.
